{"source": "paper PMC10171913", "about": "(Journal of the American Chemical Society, 2022)", "test_system": "tqq cluster of S. suis", "assay": "High-throughput elicitor screening", "assay_type": "cell-based, Streptococcus suis", "conditions": "for elicited features in HiTES 3D difference map: ~442-member human endogenous metabolite library, UPLC-Qtof-MS, Figure 2A; for elicitation of threoglucin E: 2D slice from the 3D map, abundance of threoglucin E across all 442 elicitors, Figure 2B"}
{"smiles": "NC(=O)c1cccnc1", "note": "[nicotinamide]", "values": [{"measurement": "elicited features in HiTES 3D difference map", "result": "elicited peaks"}]}
{"smiles": "c1cncc([C@@H]2CCCCN2)c1", "note": "[anabasine]", "values": [{"measurement": "elicitation of threoglucin E", "result": "best elicitors"}, {"measurement": "elicited features in HiTES 3D difference map", "result": "elicited peaks"}]}
{"smiles": "O=C(O)c1cccnc1", "note": "[niacin]", "values": [{"measurement": "elicitation of threoglucin E", "result": "best elicitors"}, {"measurement": "elicited features in HiTES 3D difference map", "result": "elicited peaks"}]}
